Assay results reported in patent publication US5985273A, “Biological control of insects” (priority 1994, dated 1999).
≈ marks a conversion by molar mass, not a printed value. Starred links: 1 amine or outer side, 2 acyl side, 3 side chain; linkers in the order of their positions; H or OH if unused. Non-standard residues stand in square brackets, D forms with d. Residues, ends and D or L forms follow the SMILES beside them. *: point of attachment. Sta = CC(C)C[C@H](N)[C@@H](O)CC(=O)O; Isovaleryl = CC(C)CC(=O)*; Nle = CCCC[C@H](N)C(=O)O; CO = O=C([*:1])[*:2]

What was measured:
Lucilia cuprina larvae = assay: Growth and survival of first instar sheep blowfly larvae on culture medium with inhibitor; type: in vivo; conditions: for Effect on larval growth, summary in words: Example 1, Table 1.2
O. surinamensis larvae = assay: Weight reduction of Oryzaephylus surinamensis larvae in treated flour; type: in vivo
Description: Insects were cultured in cleaned, ground and sieved wholemeal flour made from organic wheat. Inhibitors from bottles of pre-weighed material were dry-mixed with the flour and residual inhibitor rinsed from bottles with a small volume of water. Rinse water was added to the flour and the mixture re-ground. The impregnated flour was transferred to a 20 mL vial and mixed thoroughly by shaking and inverting.
Adults of T. castaneum were allowed to oviposit on flour, eggs were sifted from the flour and transferred one by one with a single hair to microwell tubes containing a small amount of flour. Each level of treatment was performed in triplicated using 32 wells/replicate. Assays were performed in triplicated. Cultures were incubated at 30° C. and 55% R H.
The bioassay for this insect was outlined for T. castaneum, except incubations were conducted at 32.5° C. and 70% R H. After 8 days the insects were sieved from the flour and weighed.

[1] = tested on: Colorado potato beetle larvae; conditions: cited from earlier work
[2] = tested on: Heliothis punctigens larvae; assay: Growth and survival of cotton budworm larvae fed an artificial diet; type: in vivo; conditions: for % Alive / Average Laval Weight: 10 days; for % Alive: control 70.0; for Average Laval Weight: control 165.4
Description: 1. The Haricot beans were cooked in a microwave for 40 minutes. 2. Agar was added to the hot water and stirred on a hot plate until almost boiling. 3. The haricot beans, agar mix, yeast and wheat germ was blended in an electric mixer for 3 minutes. 4. When the temperature has dropped to 60°C., the acids were added and mixed with the media. […] Inhibitor solutions or an equal volume of water were placed into sterilized glass tubes at designated concentrations. The artificial media was added to each tube (1.5 ml) using a sterile 10 ml syringe. First instar Heliothis punctigens larvae (1 larvae per tube) were added to the glass tubes and the tubes were capped. The tubes were incubated for 10 days at 25° C. The larvae were killed by placing the glass tubes at -70° C. for 24 hours, and then individually weighed. Percentage inhibition was calculated by comparison to control larvae.

Ctenocephalides felis = assay: Development of cat flea eggs in dried blood diets; type: in vivo; conditions: Day 16
Description: Blood was collected from the jugular vein of a five year old merino sheep that had not been treated with an ectoparasitic agent for 18 months. The blood was collected into a 100 ml plastic bottle containing 0.8 ml of heparin and was maintained at 4° C. Inhibitors were pre-weighed into sterile 5 ml plastic vials and 4.5 ml of blood added. The samples were mixed, placed at -70° C. for 24 hours, then freeze-dried. The freeze-dried samples were sieved through a stainless steel 63 micron sieve, and placed into sterile 5 ml plastic vials (0.15 g/per tube). Four flea eggs were placed into each vial, and a sheet of tissue paper fastened by an elastic band was fitted to the top of each vial. The vials were incubated at 25° C. and 70-80% R H for 6 days. Vermiculite was then added to each vial to provide a supporting medium for the fleas to pupate and the tubes incubated at 25° C. and 70-80% R H, for a further 10 days. Ten control vials and three vials of each treatment were tested.
At the conclusion of the incubation period the vials were placed at -20° C. for 24 hours to kill the fleas. The number of eggs hatched and the life-cycle state was recorded.

Teleogryllus commodus = assay: Mortality of black field cricket nymphs on treated cabbage leaf disks; type: in vivo; conditions: after 7 days
Description: (i) Stock solutions of inhibitors and control solutions were prepared as aqueous solutions or suspensions as outlined in Table 6.1.
(ii) Mortality was assessed by commencing the study with 1st instar nymphs.
(iii) Cabbage leaf disks (5×8 mm diameter disks/treatment) were smeared with 100 μl of inhibitor or control stock solutions and allowed to dry. Disks were placed singly in 40 mm petri dishes, together with a moist cotton wool pas as water supply and a piece of fluted plastic for shelter.
(iv) Ten nymphs were placed on each disc and the dishes incubated at 25° C.
(v) Mortality was assessed daily and any dead individuals removed.

[3] = tested on: Bovicola ovis (Hartley strain); conditions: cited from earlier work
[4] = Lucilia cuprina, first instar larvae, 2 mM
[5] = 192 h, 2.5 mM, 8 days, relative to untreated larvae, read-out: Percentage Growth Inhibition
[6] = 192 h, 5 mM, 8 days, relative to untreated larvae, read-out: Percentage Growth Inhibition
[7] = first instar larvae, tested at 1, 2, 5, 10 mM
[8] = Heliothis, 240 h, read-out: % Growth Inhibition
[9] = 192 h, 10 mM, 8 days, relative to untreated larvae, read-out: Percentage Growth Inhibition

For CC(C)CC(N)CS [L-leucinethiol, 2-amino-4-methyl-1-pentanethiol], the “Effect on larval growth, summary in words” value (“Effect on larval growth” below) (Lucilia cuprina larvae) was “effective growth inhibitors”, the inhibition at 1000 µM (Lucilia cuprina larvae; Lucilia cuprina, Table 2.2, 1.00 mM) was 21.4% and the inhibition at 2000 µM (Lucilia cuprina larvae; Lucilia cuprina, Table 2.2, 2.00 mM) was 73.1%. For the same molecule, the inhibition at 2000 µM (Lucilia cuprina larvae; [4]) was 47%, the “Average Larval Weight” value (Lucilia cuprina larvae; Table 2.2, 1.00 mM, control 10.26) was 8.06 10^-4 g and the “Average Larval Weight” value (Lucilia cuprina larvae; Table 2.2, 2.00 mM, control 10.26) was 2.76 10^-4 g. For the same molecule, the “% Growth Incubation” value (Lucilia cuprina larvae; Table 2.3, 1.0 mM) was 67.2%, the “Average Larval Weight” value (Lucilia cuprina larvae; Table 2.3, 1.0 mM, control 9.08) was 2.98 10^-4 g and the “% Growth Incubation” value (Lucilia cuprina larvae; Table 2.3, 2.0 mM) was 86.6%. For the same molecule, the “Average Larval Weight” value (Lucilia cuprina larvae; Table 2.3, 2.0 mM, control 9.08) was 1.22 10^-4 g and the “Larval survival” value (Lucilia cuprina larvae; first instar larvae, 5 mM) was “All killed”.

For CC(C)C[C@H](NC(=O)[C@@H](O)[C@H](N)Cc1ccccc1)C(=O)O [Bestatin], the “Effect on larval growth” value (Lucilia cuprina larvae) was “effective growth inhibitors”, the inhibition at 5000 µM (Lucilia cuprina larvae; Lucilia cuprina, first instar larvae, 5 mM) was 63% and the inhibition at 1250 µM (O. surinamensis larvae; 192 h, 1.25 mM, 8 days, relative to untreated larvae, read-out: Percentage Growth Inhibition) was -5%. For the same molecule, the inhibition at 2500 µM (O. surinamensis larvae; [5]) was 2%, the inhibition at 5000 µM (O. surinamensis larvae; [6]) was -4% and the “Growth inhibition, summary in words” value (O. surinamensis larvae; text summary of Table 9.1) was “ineffective”.

In the case of “tosyl-L-phenylalanine chloromethyl ketone [TPCK]”, the “Growth Inhibition” value (Lucilia cuprina larvae; [7]) was “No inhibition detected”.

In the case of CC(C)CC(=O)N[C@H](C(=O)N[C@H](C(=O)N[C@@H](CC(C)C)[C@@H](O)CC(=O)N[C@@H](C)C(=O)N[C@@H](CC(C)C)[C@@H](O)CC(=O)O)C(C)C)C(C)C [Pepstatin] (Isovaleryl-VV[Sta]A[Sta]-OH), the “Effect on larval growth” value (Lucilia cuprina larvae) is given as “ineffectiveness”, the “Growth Inhibition” value (Lucilia cuprina larvae; first instar larvae, tested at 1, 2, 10 mM) is given as “No inhibition detected” and the “Growth retardation” value ([1]; fed on potato leaves) is given as “only a small response”.

In the case of CC(=O)N[C@@H](CC(C)C)C(=O)N[C@@H](CC(C)C)C(=O)N[C@H](C=O)CCCNC(=N)N [Leupeptin, Ac-Leu-Leu-Arginyl.1/2H2 SO4 H2 O], the “Effect on larval growth” value (Lucilia cuprina larvae) was “intermediate inhibition”, the inhibition at 2000 µM (Lucilia cuprina larvae; [4]) was 71% and the inhibition at 10000 µM (Lucilia cuprina larvae; Lucilia cuprina, first instar larvae, 10 mM) was 80%. For the same molecule, the “% Alive” value ([2]; 2.5 mM) was 16.6%, the “Average Laval Weight” value ([2]; 2.5 mM) was 16.6 mg and the “% Alive” value ([2]; 5.0 mM) was 33.3%. For the same molecule, the “Average Laval Weight” value ([2]; 5.0 mM) was 17.0 mg, the inhibition at 2500 µM [2, 8] was 90% and the inhibition at 5000 µM [2, 8] was 89.7%. The “Percentage of Fleas Progressing Through to Pupation” value (“Percentage … to Pupation” for short) (Ctenocephalides felis; 1.70 mg in 4.5 ml of blood) was 0% and the “Percentage … to Pupation” value (Ctenocephalides felis; 3.40 mg in 4.5 ml of blood) was 0%.

In the case of CC[C@H](C)[C@H](N)C(=O)N1CCC[C@H]1C(=O)N[C@H](C(=O)O)[C@@H](C)CC [Diprotin, H-Ile-Pro-Ile-OH], the “Effect on larval growth” value (Lucilia cuprina larvae) was “ineffective” and the “Growth Inhibition” value (Lucilia cuprina larvae; [7]) was “No inhibition detected”.

In the case of CC(C)C[C@H](NC(=O)[C@H]1O[C@@H]1C(=O)O)C(=O)NCCCCN=C(N)N (relative stereo) [E64, L-trans-epoxy-succinyl-leucylamido-(4-guanidino-butane)], the “Effect on larval growth” value (Lucilia cuprina larvae) is given as “ineffective”, the “Growth Inhibition” value (Lucilia cuprina larvae; first instar larvae, tested at 1, 2, 5 mM) is given as “No inhibition detected” and the Plateau in mortality ([1]; 1000 μg/ml application level) is given as 74-85%. The “Threshold level for larval growth reduction” value ([1]; fed on potato leaves) was 50 µg/mL.

CC(C)[C@H](NC(=O)[C@H](CCCNC(=N)N)NC(=O)N[C@@H](Cc1ccccc1)C(=O)O)C(=O)N[C@H](C=O)CCCNC(=N)N [Antipain] ({Phe-CO}-Arg-Val-Arg-aldehyde) showed an inhibition at 2500 µM (Lucilia cuprina larvae; Lucilia cuprina, first instar larvae, 2.5 mM, unit inferred) of 45.5%, an inhibition at 5000 µM (Lucilia cuprina larvae; Lucilia cuprina, first instar larvae, 5 mM, unit inferred) of 63.2% and an inhibition at 2500 µM (O. surinamensis larvae; [5]) of -10%. The inhibition at 5000 µM (O. surinamensis larvae; [6]) was -2%, the inhibition at 10000 µM (O. surinamensis larvae; [9]) was -2% and the “Mortality (class)” value (Teleogryllus commodus; 2.5-10 mM) was “None (none/low, 10-20% mortality)”.

For “tosyl-L-lysine chloromethyl ketone [TLCK]”, the “Effect on larval growth” value (Lucilia cuprina larvae) was “killing the larvae”, the “Larval survival” value (Lucilia cuprina larvae; first instar larvae, 5 mM) was “All killed” and the “Larval survival” value (Lucilia cuprina larvae; first instar larvae, 10 mM) was “All killed”.

With CC(C)C[C@@H](N)[C@H](O)C(=O)N[C@H](C(=O)N[C@H](C(=O)N[C@@H](CC(=O)O)C(=O)O)C(C)C)C(C)C [Amastatin, ((2S,3R)-3-amino-2-hydroxy-5-methyl-hexanoyl)-Val-Val-Asp-OH] the “Effect on larval growth” value (Lucilia cuprina larvae) was “effective growth inhibitors” and the inhibition at 2000 µM (Lucilia cuprina larvae; [4]) was 60%.

For Cl.NCCc1ccc(S(=O)(=O)F)cc1 [PEFABLOC, 4-(2-aminoethyl)-benzenesulfonylfluoride hydrochloride], the “Growth Inhibition” value (Lucilia cuprina larvae; first instar larvae, 10 mM) was 72%, the “Growth Inhibition” value (Lucilia cuprina larvae; first instar larvae, 50 mM) was 92% and the “Percentage … to Pupation” value (Ctenocephalides felis; 1.10 mg in 4.5 ml of blood) was 0%. The “Percentage … to Pupation” value (Ctenocephalides felis; 2.20 mg in 4.5 ml of blood) was 0%, the “Percentage Growth Inhibition” value (O. surinamensis larvae; 2.5 mM, 8 days, relative to untreated larvae) was 49% and the “Percentage Growth Inhibition” value (O. surinamensis larvae; 5 mM, 8 days, relative to untreated larvae) was 61%. The “Percentage Growth Inhibition” value (O. surinamensis larvae; 10 mM, 8 days, relative to untreated larvae) was 79% and the “Mortality (class)” value (Teleogryllus commodus; 2.5-10 mM) was “Medium (medium 21-40%)”.

For CC1(C)C(C=C(Cl)Cl)C1C(=O)OC(C#N)c1cccc(Oc2ccccc2)c1 (stereo not drawn) [Cypermethrin], the LC95 ([3]; Hartley strain lice) is listed as 475 µg/mL (≈ 1140 µM).

For O=BOB(O)OB(O)OB=O [Borax], the inhibition at 5000 µM (O. surinamensis larvae; [6]) was -5%, the inhibition at 10000 µM (O. surinamensis larvae; [9]) was 39% and the inhibition at 20000 µM (O. surinamensis larvae; 192 h, 20 mM, 8 days, relative to untreated larvae, read-out: Percentage Growth Inhibition) was 68%. For the same molecule, the Mortality (Teleogryllus commodus; 5-20 mM) was 93% and the “Mortality (class)” value (Teleogryllus commodus; 5-20 mM) was “High (high 41-100%)”.

With Casein the “Percentage Growth Inhibition” value (O. surinamensis larvae; 10 mg/ml, 8 days) was -5%, the “Percentage Growth Inhibition” value (O. surinamensis larvae; 20 mg/ml, 8 days) was 10% and the “Percentage Growth Inhibition” value (O. surinamensis larvae; 40 mg/ml, 8 days) was -2%.

In the case of CCOP(=S)(OCC)Oc1cc(C)nc(C(C)C)n1 [Diatinon], the LC50 ([3]; Hartley strain lice) is listed as 5.31 µg/mL (≈ 17.4 µM), the LC95 ([3]; Hartley strain lice) is listed as 19.7 µg/mL (≈ 64.7 µM) and the “Resistance Factor” value ([3]; Hartley strain, (Singapore)) is listed as 1.4.

With CC(C)C[C@H](N)[C@](O)(Cc1c[nH]cn1)C(=O)O [Leuhistin, (2R,3S)-3-amino-2-hydroxy-2-(lII-imidazole-4-methyl)-5-methylhexanoic acid] the “Effect on larval growth” value (Lucilia cuprina larvae) was “effective growth inhibitors” and the “Growth Inhibition” value (Lucilia cuprina larvae; first instar larvae, 5 mM) was 65%.

With CCCC[C@@H](C=O)NC(=O)[C@H](CC(C)C)NC(=O)[C@H](CC(C)C)NC(C)=O [Calpain inhibitor I, N-Acetyl-Leu-Ley-norleucinal] (Ac-Leu-Leu-[Nle]-aldehyde) the “Growth Inhibition” value (Lucilia cuprina larvae; first instar larvae, 2 mM) was 71%.
